Reference: patent publication US20250281649A1, “PROBE DIRECTED TO ENZYME ALDH1A3 AND USE THEREOF IN THE DIAGNOSIS OF GLIOBLASTOMA” (Universita' Degli Studi Del Piemonte Orientale "A. Avogadro", priority 2021, published 2025)

System: GL261 cells
Assay: Penetration into GL261 cells in vitro
Assay type: cell-based, mouse
Source text: We used in vitro and in vivo cells from a mouse high grade glioma cell line, GL261, Briefly, twenty-four 2- to 3-month-old female C57BIC mice were stereotactically implanted under deep general anesthesia (isoflurane supplemented with nitrous oxide) with 1×10^5 GL261 glioblastoma cells. The cells were stereotactically inoculated through a burr hole by a Hamilton syringe into the left striatum (coordinates: 1 mm anteroposterior and 1 mm lateral from bregma, at a depth of 3 mm). All experimental procedures were conducted in accordance with the European Communities Council Directive of 24 Nov. 1986 (86/609 EEC), Recommendation 18/06/2007, Dir. 2010/63/UE, and the Italian law for care and use of experimental animals (DL116/92) and were approved by the Italian Ministry of Health (prot. E669C.15) and the Bioethical Committee of the University of Turin. All animals were housed under a 12-hour light-dark cycle in an environmentally controlled room. All experiments were designed to minimize the numbers of animals used and their discomfort. In each experiment, animals with tumors were allocated to two groups and i.p. injected with probe 14 or probe 13. All drugs were administered intraperitoneally, and treatments were started days 6 after tumor implantation. […] Quantitative and phenotypic evaluations were made on images acquired with a Leica TCS SP5 confocal microscope.

CCOC(=O)Cn1cc(COc2ccc(/C=C/C(O)=C/C(=O)/C=C/c3ccc(O)c(OC)c3)cc2OC)nn1 [Compound 14]
penetration into cells in vitro: penetrates GL261 cells in vitro
